# Publication PMC11473416, “Coumarin-chalcone derivatives as dual NLRP1 and NLRP3 inflammasome inhibitors targeting oxidative stress and inflammation in neurotoxin-induced HMC3 and BE(2)-M17 cell models of Parkinson's disease” (Frontiers in Aging Neuroscience, 2024)
# Several values for one entry are separate records, joined by “and”; a condition that tells them apart may be missing. Identical values can stand only once.
# Legend:
# [1] = system: HMC3 cells; assay: cytotoxicity MTT assay in HMC3 cells; assay type: cell-based, human; details: MPP^+ at 4 mM
# Description: (§1) Human HMC3 microglial (CRL-3304) and neuroblastoma BE(2)-M17 (CRL-2267) cells were obtained from American Type Culture Collection. BE(2)-M17 develops a better dopaminergic phenotype than SH-SY5Y when treated with retinoic acid to direct neuronal differentiation (Carvajal-Oliveros et al., [2022]). Cells were routinely maintained in Dulbecco's Modified Eagle Medium-Nutrient Mixture F12 (DMEM-F12) supplemented with 10% fetal bovine serum (FBS; Thermo Fisher Scientific, Waltham, MA, USA) in a 37°C incubator, with 95% relative humidity and 5% CO2 (NuAire, Plymouth, MN, USA).
# (§2) To evaluate cytotoxicity of LM compounds and MPP^+, HMC3 (1 × 10^4) or BE(2)-M17 (2 × 10^4) cells were plated on 96-well dishes, grown for 20 h, and treated with LM compounds (1–100 μM) or MPP^+ [HMC3: 0–8 mM; BE(2)-M17: 0–5 mM]. Next day, 20 μl of tetrazolium dye 3-(4,5-dimethylthiazol-2-yl)-2,5-diphenyltetrazolium bromide (MTT, 5 mg/ml; Sigma-Aldrich) was added to the cells at 37°C for 3 h. The resulted insoluble purple formazan products were dissolved by lysis buffer (composition: 10% Triton X-100, 0.1 N HCl, 18% isopropanol). The absorbance of the dissolved product at optical density (OD) 570 nm was read by using a FLx800 fluorescence microplate spectrophotometer (Bio-Tek, Winooski, VT, USA). The half maximal inhibitory concentration (IC50) of LM compounds was determined through the construction of a dose-response curve. MPP^+ at 4 mM (HMC3 cell viability: 65%−69%) or 0.62 mM [BE(2)-M17 cell viability: 79%−84%] was selected to induce inflammation for further experiments.
# [2] = system: BE(2)-M17 cells; assay: cytotoxicity MTT assay in BE(2)-M17 cells; assay type: cell-based, human; details: MPP^+ at 0.62 mM
# Description: as §1, §2
structure (smiles),measurement,setting,value
"C[n+]1ccc(-c2ccccc2)cc1 [MPP^+, 1-methyl-4-phenyl pyridinium, reference compound]",cell viability,[1],65%−69%
same,cell viability,[2],79%−84% and 80%
